In patent US12691101B2, “Compound and method for preventing or treating of respiratory diseases comprising the same as an active ingredient” (YONSEI UNIVERSITY, UNIVERSITY - INDUSTRY FOUNDATION (UIF), priority 2019, dated 2026) one finds inhibition data, which are given here for 37 compounds.

This test has as its target T1, human wild-type (WT)-pendrin (Homo sapiens, UniProt O43511).
T1 construct: expressed in transfected cells
T1 sequence (O43511 1-780): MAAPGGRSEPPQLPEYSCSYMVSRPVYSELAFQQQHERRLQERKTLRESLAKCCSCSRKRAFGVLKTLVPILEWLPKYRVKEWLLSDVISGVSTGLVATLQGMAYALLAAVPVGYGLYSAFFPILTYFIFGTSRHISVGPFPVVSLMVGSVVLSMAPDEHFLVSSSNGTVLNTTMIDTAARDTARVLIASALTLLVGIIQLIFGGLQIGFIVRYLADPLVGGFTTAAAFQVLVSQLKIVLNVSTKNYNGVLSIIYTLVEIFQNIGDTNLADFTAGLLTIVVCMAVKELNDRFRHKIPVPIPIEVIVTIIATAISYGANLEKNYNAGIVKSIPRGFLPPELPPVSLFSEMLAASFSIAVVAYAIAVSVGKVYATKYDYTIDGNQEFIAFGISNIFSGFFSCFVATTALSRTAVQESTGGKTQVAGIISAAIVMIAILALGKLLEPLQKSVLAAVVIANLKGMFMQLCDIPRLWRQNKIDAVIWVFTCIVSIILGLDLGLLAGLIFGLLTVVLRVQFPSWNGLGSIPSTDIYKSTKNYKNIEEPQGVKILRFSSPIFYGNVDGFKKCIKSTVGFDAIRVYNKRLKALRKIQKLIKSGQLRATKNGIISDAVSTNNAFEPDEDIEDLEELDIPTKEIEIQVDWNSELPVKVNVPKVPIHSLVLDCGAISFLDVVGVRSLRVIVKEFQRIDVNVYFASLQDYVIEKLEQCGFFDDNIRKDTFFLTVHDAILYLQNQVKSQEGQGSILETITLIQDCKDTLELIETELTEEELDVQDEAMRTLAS
Nature of the test: Pendrin-mediated Cl^−/I^− exchange activity, YFP fluorescence in CHO-K1 cells. Format: cell-based. As to conditions: CHO-K1, 30 μM; read-out: Pendrin inhibitory activity at 30 μM (%).
With `COc1cc(C2=NC(=Cc3cccs3)C(=O)O2)cc(OC)c1OC` [F94, 4-(Thiophen-2-ylmethylene)-2-(3,4,5-trimethoxyphenyl)oxazol-5(4H)-one], the inhibition at 30 µM worked out at 1.9%. For the compound `O=C1OC(c2ccc(Oc3ccccc3)cc2)=NC1=Cc1cccs1` [F95, 2-(4-Phenoxyphenyl)-4-(thiophen-2-ylmethylene)oxazol-5(4H)-one], the inhibition at 30 µM is 3.8%. In the case of `Cc1ccc(C=C2N=C(c3ccc(C(C)(C)C)cc3)OC2=O)s1` [F96, 2-(4-(tert-butyl)phenyl)-4-((5-methylthiophen-2-yl)methylene)oxazol-5(4H)-one] it was 3.4%; in that of `O=C1OC(c2ccc3c(c2)OCO3)=NC1=Cc1cccs1` [F97, 2-(Benzo[d][1,3]dioxoyl-5-yl)-4-(thiophen-2-ylmethylene)oxazol-5(4H)-one], 2.9%. In the case of `O=C1OC(c2ccc(N3CCCC3=O)cc2)=NC1=Cc1cccs1` [F98, 2-(4-(2-oxopyrrolidin-1-yl)phenyl)-4-(thiophen-2-ylmethylene)oxazol-5 (4H)-one] it was 3.3%. Consider `COc1ccc(C2=NC(=Cc3ccc(Cl)s3)C(=O)O2)cc1` [F99, 4-((5-Chlorothiophen-2-yl)methylene)-2-(4-methoxyphenyl)oxazol-5(4H)-one], for which the inhibition at 30 µM was found to be 2.4%. The value for `O=C1OC(c2ccc3c(c2)OCO3)=NC1=Cc1ccc(N2CCCCC2)s1` [F100, 2-(Benzo[d][1,3]dioxoyl-5-yl)-4-((5-(piperidin-1-yl)thiophen-2-yl)methylene)oxazol-5(4H)-one] was 2.5%. In the case of `COc1cc(C2=NC(=Cc3cccs3)C(=O)O2)ccc1OC(F)F` [F102, 2-(4-(Difluoromethoxy)-3-methoxyphenyl)-4-(thiophen-2-ylmethylene)oxazol-5 (4H)-one] it was 2.7%; in that of `CCc1sc(C2=NC(=Cc3cccs3)C(=O)O2)cc1C` [F103, 2-(5-Ethyl-4-methylthiophen-2-yl)-4-(thiophen-2-ylmethylene)oxazol-5(4H)-one], 3.7%. For `COc1cccc(C2=NC(=Cc3cccs3)C(=O)O2)c1` [F104, 2-(3-Methoxyphenyl)-4-(thiophen-2-ylmethylene)oxazol-5(4H)-one], the inhibition at 30 µM came to 3.5%. The value for `CN(C)c1ccc(C=C2N=C(c3ccc4ccccc4c3)OC2=O)s1` [F105, 4-((5-(Dimethylamino)thiophen-2-yl)methylene)-2-(naphthalen-2-yl)oxazol-5(4H)-one] was 3.1%. As to `CC(=O)Nc1ccc(C2=NC(=Cc3cc(Br)cs3)C(=O)O2)cc1` [F106, N-(4-(4-((4-bromothiophen-2-yl)methylene)-5-oxo-4,5-dihydrooxazol-2-yl)phenyl)acetamide], the inhibition at 30 µM turned out to be 3.3%.

Take `CC(=O)Nc1ccc(C2=NC(=Cc3ccc(Br)s3)C(=O)O2)cc1` [F107, N-(4-(4-((5-bromothiophen-2-yl)methylene)-5-oxo-4,5-dihydrooxazol-2-yl)phenyl)acetamide]: the inhibition at 30 µM stood at 2.9%.

With `CC(=O)Nc1ccc(C2=NC(=Cc3ccc(N(C)C)s3)C(=O)O2)cc1` [F108, N-(4-(4-((5-(dimethylamino)thiophen-2-yl)methylene)-5-oxo-4,5-dihydrooxazol-2-yl)phenyl) acetamide], the inhibition at 30 µM stood at 2.3%. In the case of `O=C1OC(c2ccc(OCc3ccccc3)cc2)=NC1=Cc1cccs1` [F109, 2-(4-(Benzyloxy)phenyl)-4-(thiophen-2-ylmethylene)oxazol-5(4H)-one] it was 2.4%. The value for `O=C1OC(/C=C/c2ccccc2)=NC1=Cc1cccs1` [F110, 2-((E)-styryl)-4-(thiophen-2-ylmethylene)oxazol-5 (4H)-one] was 2.9%; that for `Cc1ccc(C2=NC(=Cc3cccs3)C(=O)O2)s1` [F111, 2-(5-methylthiophen-2-yl)-4-(thiophen-2-ylmethylene)oxazol-5 (4H)-one] was 30.8%. The value for `CCN(CC)S(=O)(=O)c1cccc(C2=NC(=Cc3cccs3)C(=O)O2)c1` [F112, N,N-diethyl-3-(5-oxo-4-(thiophen-2-ylmethylene)-4,5-dihydrooxazol-2-yl)benzene sulfonamide] was 3.1%; that for `COc1ccccc1C1=NC(=Cc2sc3nc(C)nc(C)c3c2C)C(=O)O1` [F113, 2-(2-Methoxyphenyl)-4-((2,4,5-trimethylthieno[2,3-d]pyrimidin-6-yl)methylene) oxazol-5(4H)-one] was 3.5%; that for `COc1ccccc1C1=NC(=Cc2ccc(N(C)C)s2)C(=O)O1` [F114, 4-((5-(Dimethylamino)thiophen-2-yl)methylene)-2-(2-methoxyphenyl)oxazol-5(4H)-one] was 3.9%. Turning to `Cc1ccc(C=C2N=C(c3cccs3)OC2=O)s1` [F115, 4-((5-Methylthiophen-2-yl)methylene)-2-(thiophen-2-yl)oxazol-5(4H)-one], the inhibition at 30 µM turned out to be 2.8%. The value for `CN(C)S(=O)(=O)c1cccc(C2=NC(=Cc3cccs3)C(=O)O2)c1` [F116, N,N-dimethyl-3-(5-oxo-4-(thiophen-2-ylmethylene)-4,5-dihydrooxazol-2-yl) benzenesulfonamide] was 2.6%; that for `COc1ccccc1C1=NC(=Cc2ccc(Br)s2)C(=O)O1` [F117, 4-((5-Bromothiophen-2-yl)methylene)-2-(2-methoxyphenyl)oxazol-5(4H)-one] was 2.3%; that for `O=C1OC(c2cccs2)=NC1=Cc1ccc(Br)s1` [F118, 4-((5-Bromothiophen-2-yl)methylene)-2-(thiophen-2-yl)oxazol-5(4H)-one] was 2.1%. As to `Cc1ccc(C=C2N=C(c3ccc(C)s3)OC2=O)s1` [F119, 2-(5-methylthiophen-2-yl)-4-((5-methylthiophen-2-yl)methylene)oxazol-5 (4H)-one], the inhibition at 30 µM was 1.7%. The value for `O=C1OC(c2cccs2)=NC1=Cc1ccc(N2CCCCC2)s1` [F120, 4-((5-(Piperidin-1-yl)thiophen-2-yl)methylene)-2-(thiophen-2-yl)oxazol-5 (4H)-one] was 1.9%. In the case of `O=C1OC(c2ccccc2OC(F)F)=NC1=Cc1ccc(Br)s1` [F121, 4-((5-Bromothiophen-2-yl)methylene)-2-(2-(difluoromethoxy)phenyl)oxazol-5(4H)-one] it was 3.4%.

On to `CC(C)(C)c1ccc(C2=NC(=Cc3ccccc3OC(F)F)C(=O)O2)cc1` [F122, 2-(4-(tert-butyl)phenyl)-4-(2-(difluoromethoxy)benzylidene)oxazol-5(4H)-one], for which the inhibition at 30 µM came out at 3.8%. As for `O=C1OC(c2ccc3ccccc3c2)=NC1=Cc1cnn(Cc2ccccc2Cl)c1` [F123, 4-((1-(2-Chlorobenzyl)-1H-pyrazol-4-yl)methylene)-2-(naphthalen-2-yl)oxazol-5 (4H)-one], the inhibition at 30 µM is 2.4%. In the case of `CC(C)(C)c1ccc(C2=NC(=Cc3cnn(-c4ccccc4)c3)C(=O)O2)cc1` [F124, 2-(4-(tert-butyl)phenyl)-4-((1-phenyl-1H-pyrazol-4-yl)methylene)oxazol-5 (4H)-one] it was 2%.

For the compound `COc1ccccc1C1=NC(=Cc2cnn(C)c2)C(=O)O1` [F125, 2-(2-methoxyphenyl)-4-((1-methyl-1H-pyrazol-4-yl)methylene)oxazol-5(4H)-one], the inhibition at 30 µM was determined as 1%. In the case of `Cc1ccc(C=C2N=C(c3ccc(S(=O)(=O)NC(C)(C)C)cc3)OC2=O)o1` [F126, N-(tert-butyl)-4-(4-((5-methylfuran-2-yl)methylene)-5-oxo-4,5-dihydrooxazol-2-yl) benzenesulfonamide] it was 2.5%. In the case of `CCN(CC)S(=O)(=O)c1ccc(C2=N/C(=C3\C=CC=CN3C)C(=O)O2)cc1` [F127, N,N-diethyl-4-(4-(1-methylpyridin-2(1H)-ylidene)-5-oxo-4,5-dihydrooxazol-2-yl)benzenesulfonamide], the inhibition at 30 µM amounted to 3.6%.

As to `COc1ccccc1C1=NC(=Cc2ccc(OCC(N)=O)cc2)C(=O)O1` [F128, 2-(4-((2-(2-methoxyphenyl)-5-oxooxazol-4(5H)-ylidene)methyl)phenoxy)acetamide], the inhibition at 30 µM came to 1.9%. In the case of `CC(=O)Nc1ccc(C=C2N=C(c3ccc(OC(C)C)cc3)OC2=O)cc1` [F129, N-(4-((2-(4-isopropoxyphenyl)-5-oxooxazol-4(5H)-ylidene)methyl)phenyl)acetamide] it was 2.3%.

As for `CC(C)Oc1ccc(C2=NC(=Cc3cnn(Cc4ccccc4)c3)C(=O)O2)cc1` [F130, 4-((1-Benzyl-1H-pyrazol-4-yl)methylene)-2-(4-isopropoxyphenyl)oxazol-5 (4H)-one], the inhibition at 30 µM turned out to be 2.7%. The value for `CCN(CC)S(=O)(=O)c1cccc(C2=NC(=Cc3cnn(C)c3)C(=O)O2)c1` [F131, N,N-diethyl-3-(4-((1-methyl-1H-pyrazol-4-yl)methylene)-5-oxo-4,5-dihydrooxazol-2-yl)benzenesulfonamide] was 2.1%.
